Counter-ions that a name gives are not always drawn. Like-named read-outs stand apart in the source and are kept apart here.
What was measured:
SARS-CoV-2 = assay: SARS-CoV-2/Hela-ACE test; format: cell-based; conditions: read-out: SAR-CoV-2 EC50
[1] = Toxicity testing in uninfected cells; format: cell-based; conditions: human, uninfected Hela-ACE cells, Cell-Titer Glo
Protocol: (§1) Toxicity Testing in Uninfected Cells
(§2) The compound was transferred to a 1536-well plate (Corning No. 9006BC), and then Hela-ACE cells were added (cell density: 600 cells/5 microliter of medium MEM with 2% FBS). After the assay plate was incubated at 37° C. in 5% CO2 for 48 hours, cell viability was tested. 2 μL of 50% Cell-Titer Glo (Promega No G7573) was diluted in water and added to a cell assay plate, and then a value on En Vision Plate Reader (Perkin Elmer) was read.

[2] = biological target: SARS-CoV-2 main protease (3CLpro) (Severe acute respiratory syndrome coronavirus 2 (2019-nCoV) (SARS-CoV-2), UniProt P0DTD1); assay: Enzyme activity test; format: biochemical; conditions: 200 nM recombinant SARS-CoV-2 main protease, 15 μM fluorescent substrate, pH 7.3
[3] = Oral pharmacokinetics in rats; format: in vivo; conditions: rat, blood, male SD rats, 15 mg/kg
Protocol: Test Example 2: Measurement of Oral Pharmacokinetics in Rats
Male SD rats were orally administered with 15 mg/kg of the compound in the examples of the present disclosure, and blood samples were collected at 0.083, 0.25, 0.5, 1, 2, 4, and 8 hours respectively. After the samples were treated with anticoagulant EDTA-K2 and acetonitrile and centrifuged, a drug concentration analysis was conducted using LC/MS/MS.

Hela-ACE cells = assay: Toxicity testing in uninfected cells; format: cell-based; conditions: 48 hours, Cell-Titer Glo
Protocol: as §1, §2

[4] = Severe acute respiratory syndrome coronavirus 2, Hela-ACE cells infected with SARS-CoV-2 (USA-WA1/2020), 48 hours
[5] = Severe acute respiratory syndrome coronavirus 2, 48 h

Molecule | EC50 (SARS-CoV-2; [4]) [nM] | CC50 at 48 h [1] [nM] | IC50 [2] [nM] | AUC(0-inf) [3] [ng·h/mL] | AUC(0-t) [3] [ng·h/mL] | Cmax [3] [ng/mL] | half-life [3] [h] | EC50 (SARS-CoV-2; [5]) [nM] | EC50 (SARS-CoV-2; Hela-ACE cells infected with SARS-CoV-2 (USA-WA1/2020), 48 hours) [nM] | CC50 (Hela-ACE cells) [nM]
CC(C)(C)OC(=O)NC(C(=O)N1C[C@H]2[C@@H]([C@H]1C(=O)NC(C#N)c1cncc(Br)c1)C2(C)C)C(C)(C)C (stereo partly drawn) [GDI-001] | 462 | > 39800 | 80 | 1830 | 1810 | 630 | 2.34 |  |  | 
CC(C)(C)[C@H](N)C(=O)N1C[C@H]2[C@@H]([C@H]1C(=O)NC(C#N)c1cncc(Br)c1)C2(C)C (stereo partly drawn) [GDI-002, (1R,2S,5S)-3-((S)-2-amino-3,3-dimethylbutyryl)-N-((5-bromopyridin-3-yl)(cyano)methyl)-6,6-dimethyl-3-azabicyclo[3.1.0]he xane-2-carboxamide formate] |  | > 39800 | 320 |  |  |  |  | 7860 |  | 
CC(=O)N[C@H](C(=O)N1C[C@H]2[C@@H]([C@H]1C(=O)NC(C#N)c1cncc(Br)c1)C2(C)C)C(C)(C)C (stereo partly drawn) [GDI-003, (1R,2S,5S)-3-((S)-2-acetamido-3,3-dimethylbutyryl)-N-((5-bromopyridin-3-yl)(cyano)methyl)-6,6-dimethyl-3-azabicyclo[3.1.0]he xane-2-carboxamide] | 1250 | > 39800 | 50 |  |  |  |  |  |  | 
CC(=O)N[C@H](C(=O)N1C[C@H]2[C@@H]([C@H]1C(=O)NC(C#N)c1cncc(C)c1)C2(C)C)C(C)(C)C (stereo partly drawn) [GDI-005, (1R,2S,5S)-3-((S)-2-acetamido-3,3-dimethylbutyryl)-N-(cyano(5-methylpyridin-3-yl)methyl)-6,6-dimethyl-3-azabicyclo[3.1.0]hex ane-2-carboxamide] | 117 | > 39800 | 80 |  |  |  |  |  |  | 
CC(=O)N[C@H](C(=O)N1C[C@H]2[C@@H]([C@H]1C(=O)NC(C#N)c1cncc3ccccc13)C2(C)C)C(C)(C)C (stereo partly drawn) [GDI-006, (1R,2S,5S)-3-((S)-2-acetamido-3,3-dimethylbutyryl)-N-(cyano(isoquinolin-4-yl)methyl)-6,6-dimethyl-3-azabicyclo[3.1.0]hexane-2-carboxamide] | 28 | > 39800 | 28 | 1700 | 1690 | 2170 | 0.875 |  |  | 
CC(=O)N[C@H](C(=O)N1C[C@H]2[C@@H]([C@H]1C(=O)NC(C#N)c1cncc(C(F)(F)F)c1)C2(C)C)C(C)(C)C (stereo partly drawn) [GDI-007, (1R,2S,5S)-3-((S)-2-acetamido-3,3-dimethylbutanol)-N-(cyano(5-(trifluoromethyl)pyridin-3-yl)methyl)-6,6-dimethyl-3-azabicyclo [3.1.0]hexane-2-carboxamide] | 512 | > 39800 | 170 |  |  |  |  |  |  | 
COc1cncc(C(C#N)NC(=O)[C@@H]2[C@@H]3[C@H](CN2C(=O)[C@@H](NC(C)=O)C(C)(C)C)C3(C)C)c1 (stereo partly drawn) [GDI-008, (1R,2S,5S)-3-((S)-2-acetamido-3,3-dimethylbutyryl)-N-(cyano(5-methoxypyridin-3-yl)methyl)-6,6-dimethyl-3-azabicyclo[3.1.0]he xane-2-carboxamide] | 417 | > 39800 | 37 |  |  |  |  |  |  | 
CC(=O)N[C@H](C(=O)N1C[C@H]2[C@@H]([C@H]1C(=O)NC(C#N)c1cncc(C#N)c1)C2(C)C)C(C)(C)C (stereo partly drawn) [GDI-010, (1R,2S,5S)-3-((S)-2-acetamido-3,3-dimethylbutyryl)-N-(cyano(5-cyanopyridin-3-yl)methyl)-6,6-dimethyl-3-azabicyclo[3.1.0]hexane-2-carboxamide] | 5720 | > 39800 | 330 |  |  |  |  |  |  | 
CC(C)(C)[C@H](NC(=O)C(F)(F)F)C(=O)N1C[C@H]2[C@@H]([C@H]1C(=O)NC(C#N)c1cncc(Br)c1)C2(C)C (stereo partly drawn) [GDI-011, (1R,2S,5S)-N-((5-bromopyridin-3-yl) (cyano)methyl)-3-((S)-3,3-dimethyl-2-(2,2,2-trifluoroacetylamino)butyryl)-6,6-dimethyl-3-aza bicyclo[3.1.0]hexane-2-carboxamide] |  | > 39800 | 78 | 3470 | 3450 | 1870 | 1.05 | 613 |  | 
Cc1ccc(S(=O)(=O)N[C@H](C(=O)N2C[C@H]3[C@@H]([C@H]2C(=O)NC(C#N)c2cncc(C(F)(F)F)c2)C3(C)C)C(C)(C)C)cc1 (stereo partly drawn) [GDI-016, (1R,2S,5S)-N-(cyano(5-(trifluoromethyl)pyridin-3-yl)methyl)-3-((S)-3,3-dimethyl-2-((4-methylphenyl)sulfonamido)butanoyl)-6,6-dimet hyl-3-azabicyclo[3.1.0]hexane-2-carboxamide] | 32 | > 39200 | 31 |  |  |  |  |  |  | 
CC(=O)N[C@H](C(=O)N1C[C@H]2[C@@H]([C@H]1C(=O)N[C@H](C#N)c1cncc3ccccc13)C2(C)C)C(C)(C)C [GDI-036] | 20 | > 39800 | 20 |  |  |  |  |  |  | 
CC(=O)N[C@H](C(=O)N1C[C@H]2[C@@H]([C@H]1C(=O)N[C@@H](C#N)c1cncc3ccccc13)C2(C)C)C(C)(C)C [GDI-037] | 30 | > 39800 | 40 |  |  |  |  |  |  | 
(1R,2S,5S)-N-(cyano(5-(3-methyl-1,2,4-oxadiazol-5-yl)pyridin-3-yl)methyl)-3-(S)-3,3-dimethyl-2-(2,2,2-trifluoroacetylamino) butyryl)- 6,6-dimethyl-3-azabicyclo[3.1.0]hexane-2-carboxamide [GDI-017] |  |  | 46 |  |  |  |  |  | 660 | > 39800
